Experimental data published in publication PMC7913621 (Molecules, 2021).

Assays:
bone osteosarcoma U-2 OS = test: MTT cell viability assay, U-2 OS; assay type: cell-based, human; conditions: Homo sapiens, U2OS, 72 h, median (95% Confidence Intervals)
Method: (§1) The following human cell lines were used in this study: (i) epidermoid carcinoma A-431 (ATCC® CRL-1555), (ii) lung carcinoma A549 (ATCC® CCL-185), (iii) colorectal carcinoma HCT116 (ATCC® CCL-247), (iv) HCT116p53^−/−, (v) glioblastoma U-87 MG (ATCC® HTB-14), (vi) glioblastoma U-251 MG (ECACC 09063001), (vii) breast adenocarcinoma MCF7 (ATCC® HTB-22), (viii) breast adenocarcinoma MDA-MB-231 (ECACC 92020424), (ix) papillomavirus-related cervical squamous cell carcinoma SKG-IIIa (RRID:CVCL_1704), (x) cervical adenocarcinoma HeLa (ATCC® CCL-2), (xi) bone osteosarcoma U-2 OS (ATCC® HTB-96), (xii) hepatocellular carcinoma HEPG2 (ATCC® HB-8065), (xiii) larynx squamous cell carcinoma BICR 18 (ECACC 06051601), (ix) kidney HEK 293T (ATCC® CRL-11268), (xv) normal lung fibroblasts MRC-5 (ATCC® CCL-171), (xvi) normal fibroblasts BJ (ATCC® CRL-2522). The HCT116p53^−/− cell line was a kind gift from professor Bert Vogelstein (John Hopkin’s University, Baltimore, MD, USA). The remaining cell lines were purchased from ATCC (Manassas, VA, USA) or Sigma-Aldrich by Merck (Darmstadt, Germany).
(§2) Cells were cultured in minimal or Dulbecco’s modified Eagle’s or Ham’s F10 medium supplemented with 10% fetal bovine serum (Gibco by Thermo Fisher Scientific, Waltham, MA, USA) and (for BICR 18) 0.4 μg/mL hydrocortizone (Sigma-Aldrich by Merck, Darmstadt, Germany) under standard culture conditions (37 °C, 5% CO2) in a humidified incubator with an atmospheric oxygen.
(§3) The viability of cells was assayed by measuring the conversion of MTT (3-(4,5-dimethylthiazol-2-yl)-2,5-diphenyltetrazolium bromide) to the formazan (the rate of this reaction is proportional to the number of surviving cells). Cells were seeded in a 96-well plate at a density of 2500–3500 cells per well, 24 h before treatment. […] MTT stock solution (Sigma-Aldrich) was added at the final concentration 0.5 mg/mL. After 4 h of incubation at 37 °C, water-insoluble formazan was dissolved in a lysis buffer containing 20% SDS, 50% DMF, 2.5% hydrochloric acid and 2.5% acetic acid. Optical densities were measured at 570 nm using a scanning multi-well spectrophotometer ([…] Detection Platform; Beckman Coulter, Brea, CA, USA). At least three independent experiments of viability were conducted.

glioblastoma U-87 MG = test: MTT cell viability assay, U-87 MG; assay type: cell-based, human; conditions: Homo sapiens, 72 h, median (95% Confidence Intervals)
Method: as §1, §2, §3

[1] = test system: colorectal carcinoma HCT116; test: MTT cell viability assay, HCT116; assay type: cell-based, human; conditions: Homo sapiens, HCT-116, 72 h, median (95% Confidence Intervals)
Method: as §1, §2, §3

[2] = test system: normal lung fibroblasts MRC-5; test: MTT cell viability assay, MRC-5; assay type: cell-based, human; conditions: Homo sapiens, MRC5; MRC-5, MTT, 72 h; median (95% Confidence Intervals)
Method: as §1, §2, §3

[3] = test system: colorectal carcinoma HCT116p53^−/−; test: MTT cell viability assay, HCT116p53−/−; assay type: cell-based, human; conditions: Homo sapiens, 72 h, median (95% Confidence Intervals)
Method: as §1, §2, §3

[4] = molecular target: T1, recombinant human PDE5A/PDE5 protein (Homo sapiens, UniProt O76074); test: colorimetric PDE Activity Assay Kit (Abcam), PDE5 inhibition; assay type: biochemical; conditions: for IC50: 200 μM cGMP, 40 ng enzyme, 20 min at 37 °C, 4% DMSO, read-out: IC50 against human PDE5; for Ki: read-out: Ki against human PDE5
T1 construct: purchased Abcam
Method: A high concentration of cGMP substrate was used (200 μM) due to the moderate sensitivity of the aforementioned assay.
The inhibitory effect of the tested compounds was measured using colorimetric PDE Activity Assay Kit (Abcam, Cambridge, UK). This assay allows the quantification of 5′-nucleotide released in the reaction catalyzed by tested phosphodiesterase, PDE5, using the additional enzyme 5′-nucleotidase to cleave the mentioned product, and next, using modified Malachite Green assay, the phosphate is quantified. The assay was carried in a 96-well plate at a volume of 40 μL in an assay buffer, containing 40 ng recombinant human PDE5A/PDE5 protein (Abcam), 200 μM cGMP, 25 kU 5′-nucleotidase and serially diluted ligand to preserve 4% of DMSO. The reaction was initiated with the enzyme and kept going for 20 min at 37 °C. The reaction was stopped by adding 80 μL of Green Assay reagent. After incubation at room temperature for 30 min (to develop color proportional to phosphate content), the absorbance at 620 nm was measured with The SpectraMax iD3 Multi-Mode Microplate Reader (Molecular Devices, San Jose, CA, USA). Inhibitors concentrations varied in the range of 2 pM–200 μM. Each experiment was repeated 4–5 times and IC50 values were calculated by global fitting of the sigmoidal dose response equation implemented in Origin 9.0 package (www.originlab.com). For each experiment, control reaction with no enzyme added and without inhibitor was also performed.

[5] = test system: breast adenocarcinoma MDA-MB-231; test: MTT cell viability assay, MDA-MB-231; assay type: cell-based, human; conditions: Homo sapiens; MDA-MB-231, MTT, 72 h; median (95% Confidence Intervals)
Method: as §1, §2, §3

[6] = test system: epidermoid carcinoma A-431; test: MTT cell viability assay, A-431; assay type: cell-based, human; conditions: Homo sapiens; A-431, MTT, 72 h; median (95% Confidence Intervals)
Method: as §1, §2, §3

[7] = test system: cervical squamous cell carcinoma SKG-IIIa; test: MTT cell viability assay, SKG-IIIa; assay type: cell-based, human; conditions: Homo sapiens, SKGIIIa, 72 h, median (95% Confidence Intervals)
Method: as §1, §2, §3

[8] = test system: cervical adenocarcinoma HeLa; test: MTT cell viability assay, HeLa; assay type: cell-based, human; conditions: Homo sapiens, 72 h, median (95% Confidence Intervals)
Method: as §1, §2, §3

kidney HEK 293T = test: MTT cell viability assay, HEK 293T; assay type: cell-based, human; conditions: Homo sapiens, 72 h, median (95% Confidence Intervals)
Method: as §1, §2, §3

normal fibroblasts BJ = test: MTT cell viability assay, BJ; assay type: cell-based, human; conditions: Homo sapiens, Fibroblast, 72 h, median (95% Confidence Intervals)
Method: as §1, §2, §3

[9] = test system: breast adenocarcinoma MCF7; test: MTT cell viability assay, MCF7; assay type: cell-based, human; conditions: Homo sapiens, 72 h, median (95% Confidence Intervals)
Method: as §1, §2, §3

[10] = test system: blood platelet aggregation; test: platelet aggregation in platelet-rich plasma (light transmittance aggregometry, collagen + DEA-NO); assay type: cell-based; conditions: Homo sapiens, 10 μM compound, 500 nM DEA-NO, 2 μg/mL collagen, vs DMSO + DEA-NO
Source text: Nitric oxide is one of the main physiological antiplatelet molecules secreted by vascular endothelium. It stimulates intraplatelet production of cGMP. This secondary messenger is then decomposed in platelets by the activity of two out of three PDE isoforms which are detected in platelets, namely by PDE2 and PDE5, while the other isoform (PDE3) is mostly involved in cAMP hydrolysis. Inhibitors of these phosphodiesterases increase intraplatelet concentration of cGMP and thus potentiate the antiplatelet effect of NO [52]. […]
Multiplate test cells for turbidimetric aggregometry and collagen were purchased from Chronolog Co (Havertown, PA, USA). […] DEA-NO was added to the final concentration of 500 nM, and shortly after, collagen was added to each sample to a final concentration of 2 μg/mL to induce platelet aggregation, which was thereafter monitored for 10 min using an optical aggregometer Chrono-Log 490-2D (Chrono-Log, Havertown, PA, USA). The total area under the aggregation curve (AUC) and the maximal value of platelet aggregation (Amax,U) was recorded. […]
Shortly prior to measurement, 500 nM DEA-NO was added, followed by 2 μg/mL collagen. Percentage of inhibition of platelet response was calculated in comparison to a sample treated with DMSO and DEA-NO on the basis of maximal value of platelet aggregation. […]

glioblastoma U-251 MG = test: MTT cell viability assay, U-251 MG; assay type: cell-based, human; conditions: Homo sapiens, 72 h, median (95% Confidence Intervals)
Method: as §1, with “The remaining cell lines were purchased from ATCC (Manassas, VA, USA) or Sigma-Aldrich by Merck (Darmstadt, Germany).” left out
The viability of cells was assayed by measuring the conversion of MTT (3-(4,5-dimethylthiazol-2-yl)-2,5-diphenyltetrazolium bromide) to the formazan (the rate of this reaction is proportional to the number of surviving cells). […] Optical densities were measured at 570 nm using a scanning multi-well spectrophotometer ([…] Detection Platform; Beckman Coulter, Brea, CA, USA). […]

lung carcinoma A549 = test: MTT cell viability assay, A549; assay type: cell-based, human; conditions: Homo sapiens, 72 h, median (95% Confidence Intervals)
Method: as §1, §2, §3

[11] = test system: hepatocellular carcinoma HEPG2; test: MTT cell viability assay, HEPG2; assay type: cell-based, human; conditions: Homo sapiens, 72 h, median (95% Confidence Intervals)
Method: as §1, §2, §3

[12] = test system: larynx squamous cell carcinoma BICR 18; test: MTT cell viability assay, BICR 18; assay type: cell-based, human; conditions: Homo sapiens; BICR 18, MTT, 72 h; median (95% Confidence Intervals)
Method: as §1, §2, §3

PDE5 = conditions: read-out: earlier reported IC50 values for PDE5; cited from earlier work

| IC50 (bone osteosarcoma U-2 OS) | IC50 (glioblastoma U-87 MG) | IC50 [1] | IC50 [3] | IC50 [4] | Ki [4] | IC50 [5] | IC50 [6] | IC50 [7] | IC50 [8] | IC50 [9] | SMILES | IC50 [2] | IC50 (kidney HEK 293T) | IC50 (normal fibroblasts BJ) | inhibition at 10 µM [10] | IC50 (glioblastoma U-251 MG) | IC50 (lung carcinoma A549) | IC50 [11] | IC50 [12] | IC50 (PDE5) |
| --- | --- | --- | --- | --- | --- | --- | --- | --- | --- | --- | --- | --- | --- | --- | --- | --- | --- | --- | --- | --- |
| 88.3 µM | 151 µM | 83.7 µM | 143 µM | 260 ± 210 µM | 2.6 ± 2.7 µM | 128 µM | 112 µM | 87.6 µM | 93.5 µM | 54.1 µM | CN1CC(=O)N(Cc2ccc3c(c2)OCO3)[C@@H](Cc2c[nH]c3ccccc23)C1=O [Compound 6b, (S)-3-((1H-indol-3-yl)methyl)-4-(benzo[d][1,3]dioxol-5-ylmethyl)-1-methylpiperazine-2,5-dione] | 127 µM | 13 µM | 143 µM |  |  |  |  |  |  |
| 88.8 µM | 99 µM | 58.7 µM | 64.4 µM | 39 ± 27 µM | 0.39 ± 0.36 µM | 144 µM | 46.6 µM | 57.3 µM | 78.4 µM | 36.3 µM | CN1CC(=O)N(Cc2cc3c(cc2Br)OCO3)[C@@H](Cc2c[nH]c3ccccc23)C1=O [Compound 7b, (S)-3-((1H-indol-3-yl)methyl)-4-((6-bromobenzo[d][1,3]dioxol-5-yl)methyl)-1-methylpiperazine-2,5-dione] | 96.6 µM | 13.1 µM | 103 µM |  |  | 131 µM | 124 µM | 142 µM |  |

| SMILES | IC50 (bone osteosarcoma U-2 OS) | IC50 (glioblastoma U-87 MG) | IC50 [1] | IC50 [3] | IC50 [4] | Ki [4] | IC50 [5] | IC50 [6] | IC50 [7] | IC50 [8] | IC50 [9] | IC50 [2] | IC50 (kidney HEK 293T) | IC50 (normal fibroblasts BJ) | inhibition at 10 µM [10] | IC50 (glioblastoma U-251 MG) | IC50 (lung carcinoma A549) | IC50 [11] | IC50 [12] | IC50 (PDE5) |
| --- | --- | --- | --- | --- | --- | --- | --- | --- | --- | --- | --- | --- | --- | --- | --- | --- | --- | --- | --- | --- |
| CN1CC(=O)N2[C@H](c3ccc4c(c3)OCO4)c3[nH]c4ccccc4c3C[C@@H]2C1=O [Tadalafil, reference compound] | 35.1 µM | 40.7 µM | 27.2 µM | 19.8 µM |  |  | 87.6 µM | 20.4 µM | 35.1 µM | 42.3 µM | 55.3 µM | 28.7 µM | 31 µM | 40.5 µM | ~50% | 44.1 µM | 51.5 µM | 46.6 µM | 52.5 µM | […] |
